We go through 7 compounds from patent US6692880B2, “Electrophotographic toner with stable triboelectric properties” (Heidelberger Druckmaschinen AG, priority 2001, dated 2004).

The conditions of series [1]: obtained or extrapolated from tables in Morrison and Boyd; cited from earlier work.
Series [2] is described as follows: Charge per mass of developers after exercise periods, MECCA device. The series is classed as physicochemical. The following applies: clear polyester toner; for Fresh Developer 10 min exercise (charge values) / Fresh developer 2 min shake (charge values) / Rebuilt developer 2 min shake (charge values) / Rebuilt developer 10 min exercise (charge values): Binder C resin.

Series [3] is described as follows: pKa values measured by titrimetry. Format: physicochemical. The following applies: (a) values measured by titrimetry; read-out: pKa 1. An excerpt: Any acidic material having a pKa in the range of from about 2 to about 8 can be used as the first charge control agent. Acidic materials with pKa values of from 3 to 7 are particularly preferred. Acidic materials preferably contain a labile proton, such as a carboxylic, phenolic or sulfonic acid. More broadly an acid also includes compounds within the definition as proposed by G. N. Lewis, that is an acid is any material capable of accepting an electron pair from a donor molecule. The term pKa is defined as
where Ka is an inherent molecular property of an acidic compound and is called the acid dissociation constant. Ka is defined by the following equation; [formula]
In a practical sense the lower the pKa value the stronger the acid. Acids useful in this invention may have more than one acid function per molecule such as di- and tri-carboxylic or di- and tri-sulfonic acids. Further, multiple types of acid functional groups may be present in the useful molecule for example as in p-carboxybenzenesulfonic acid. One skilled in the art can readily propose other such acids based on the foregoing definitions.

Where [4] appears, read: 0.2 pph added acid, LLT-101 resin, 2 pph Bontron E-84.
The mark [5] stands for this setting: 0.2 pph adipic acid added, 0 pph Bontron E-84, Binder C.
[6] abbreviates: 0.2 pph adipic acid added, 2 pph Bontron E-84, Binder C.
Where [7] appears, read: 1 pph added acid, LLT-101 resin, 2 pph Bontron E-84.
The mark [8] stands for this setting: 1 pph adipic acid added, 0 pph Bontron E-84, Binder C.
The mark [9] stands for this setting: 1 pph adipic acid added, 2 pph Bontron E-84, Binder C.
[10] abbreviates: 5 pph added acid, LLT-101 resin, 2 pph Bontron E-84.
The mark [11] stands for this setting: 5 pph adipic acid added, 0 pph Bontron E-84, Binder C.
The mark [12] stands for this setting: 5 pph adipic acid added, 2 pph Bontron E-84, Binder C.
The mark [13] stands for this setting: 0.2 pph added acid, 2 pph Bontron E-84.
Where [14] appears, read: 1 pph added acid, 2 pph Bontron E-84.
The mark [15] stands for this setting: 5 pph added acid, 2 pph Bontron E-84.

Consider `CC(C)(C)c1cc(C(=O)O)cc(C(C)(C)C)c1` [3,5-di-t-butylbenzoic, 3,5-di-t-butylbenzoic acid], for which, in series [1], the “pKa 1” value is 4.6.

`O=C(O)CCCCC(=O)O` [Adipic acid]: the “Fresh Developer 10 min exercise (charge per mass)” value in series [2] (setting [4]) is −63.2 μC/g; in series [2] (setting [5]), −30.1 μC/g; in series [2] (setting [6]), −64.2 μC/g; in series [2] (setting [7]), −40.9 μC/g; in series [2] (setting [8]), −27.6 μC/g; in series [2] (setting [9]) it was −41.8 μC/g. Further, the “Fresh Developer 10 min exercise (charge per mass)” value is −25.8 μC/g in series [2] (setting [10]), −28.4 μC/g in series [2] (setting [11]) and −35.7 μC/g in series [2] (setting [12]). For the same compound, the “Fresh developer 2 min shake (charge per mass)” value in series [2] (setting [4]) was −25.9 μC/g; in series [2] (setting [5]) it was −10.0 μC/g; in series [2] (setting [6]), −29.6 μC/g; in series [2] (setting [7]) it was −23.7 μC/g; in series [2] (setting [8]), −10.1 μC/g; in series [2] (setting [9]), −30.4 μC/g. Also, the “Fresh developer 2 min shake (charge per mass)” value in series [2] (setting [10]) is given as −18.6 μC/g; in series [2] (setting [11]), −10.4 μC/g; in series [2] (setting [12]), −18.5 μC/g. Besides, the “Rebuilt developer 2 min shake (charge per mass)” value in series [2] (setting [4]) is listed as −56.9 μC/g; in series [2] (setting [5]) it was −7.1 μC/g; in series [2] (setting [6]), −39.4 μC/g; in series [2] (setting [7]), −27.1 μC/g; in series [2] (setting [8]) it was −4.6 μC/g; in series [2] (setting [9]), −17.1 μC/g. The “Rebuilt developer 2 min shake (charge per mass)” value is −17.9 μC/g in series [2] (setting [10]), −5.3 μC/g in series [2] (setting [11]) and −11.2 μC/g in series [2] (setting [12]). The “Rebuilt developer 10 min exercise (charge per mass)” value was −57.7 μC/g in series [2] (setting [4]); −17.3 μC/g in series [2] (setting [5]); −49.6 μC/g in series [2] (setting [6]); −28.8 μC/g in series [2] (setting [7]); −12.5 μC/g in series [2] (setting [8]); −32.3 μC/g in series [2] (setting [9]). Moreover, the “Rebuilt developer 10 min exercise (charge per mass)” value in series [2] (setting [10]) is recorded as −24.5 μC/g; in series [2] (setting [11]), −11.6 μC/g; in series [2] (setting [12]) it was −29.2 μC/g. Besides, in series [1], the “pKa 1” value was 4.5.

For the compound `O=C(O)CCCC(=O)O` [Glutaric acid], in series [2] (setting [13]), the “Fresh Developer 10 min exercise (charge values)” value is recorded as −66.2 μC/g, the “Fresh developer 2 min shake (charge values)” value is −26.5 μC/g, the “Rebuilt developer 2 min shake (charge values)” value is on record as −45.7 μC/g and the “Rebuilt developer 10 min exercise (charge values)” value is on record as −58.1 μC/g. Moreover, in series [2] (setting [14]), the “Fresh Developer 10 min exercise (charge values)” value is listed as −42.5 μC/g, the “Fresh developer 2 min shake (charge values)” value was −16.6 μC/g, the “Rebuilt developer 2 min shake (charge values)” value is reported as −15.6 μC/g and the “Rebuilt developer 10 min exercise (charge values)” value was −30.1 μC/g. In series [2] (setting [15]), the “Fresh Developer 10 min exercise (charge values)” value was −11.8 μC/g, the “Fresh developer 2 min shake (charge values)” value is −6.2 μC/g, the “Rebuilt developer 2 min shake (charge values)” value was −4.5 μC/g and the “Rebuilt developer 10 min exercise (charge values)” value is listed as −13.3 μC/g. The “pKa 2” value in series [1] is recorded as 5.4.

For orientation: pKa means the pH at which an ionisable group is half protonated. In the case of `CC1=NN(c2ccccc2)C(=O)C1` [MPP, 2,4-dihydro-5-methyl-2-phenyl-3H-pyrazol-3-one], the pKa in series [3] came out at 6.6.

As for `O=C(O)c1ccc(C(=O)O)cc1` [Terephthalic acid], in series [2] (setting [13]), the “Fresh Developer 10 min exercise (charge values)” value is recorded as −58.9 μC/g, the “Fresh developer 2 min shake (charge values)” value is reported as −25.5 μC/g, the “Rebuilt developer 2 min shake (charge values)” value is recorded as −45.3 μC/g and the “Rebuilt developer 10 min exercise (charge values)” value is −49.8 μC/g. Further, in series [2] (setting [4]), the “Fresh Developer 10 min exercise (charge per mass)” value is listed as −37.2 μC/g, the “Fresh developer 2 min shake (charge per mass)” value is listed as −30.3 μC/g, the “Rebuilt developer 2 min shake (charge per mass)” value was −43.9 μC/g and the “Rebuilt developer 10 min exercise (charge per mass)” value is −35.6 μC/g. Also, in series [2] (setting [14]), the “Fresh Developer 10 min exercise (charge values)” value was −46.9 μC/g, the “Fresh developer 2 min shake (charge values)” value is −24.4 μC/g, the “Rebuilt developer 2 min shake (charge values)” value is given as −34.4 μC/g and the “Rebuilt developer 10 min exercise (charge values)” value is on record as −37.9 μC/g. For the same compound, in series [2] (setting [7]), the “Fresh Developer 10 min exercise (charge per mass)” value is −19.7 μC/g, the “Fresh developer 2 min shake (charge per mass)” value is listed as −34.9 μC/g, the “Rebuilt developer 2 min shake (charge per mass)” value is given as −15.2 μC/g and the “Rebuilt developer 10 min exercise (charge per mass)” value is −12.9 μC/g. In series [2] (setting [15]), the “Fresh Developer 10 min exercise (charge values)” value was −13.8 μC/g, the “Fresh developer 2 min shake (charge values)” value is on record as −28.3 μC/g, the “Rebuilt developer 2 min shake (charge values)” value is given as −16.5 μC/g and the “Rebuilt developer 10 min exercise (charge values)” value is given as −13.3 μC/g. Besides, in series [2] (setting [10]), the “Fresh Developer 10 min exercise (charge per mass)” value is reported as −10.0 μC/g, the “Fresh developer 2 min shake (charge per mass)” value was −32.8 μC/g, the “Rebuilt developer 2 min shake (charge per mass)” value is −18.2 μC/g and the “Rebuilt developer 10 min exercise (charge per mass)” value is listed as −5.8 μC/g.

As for `CCOC(=O)/C=C/C(=O)O` [fumaric acid monoethyl ester], the pKa in series [3] came out at 3.5.

For `O=C(O)c1ccccc1C(=O)O` [phthalic], in series [1], the “pKa 1” value was 3.0 and the “pKa 2” value is 5.4.
